In patent publication US9657110B2, “Polypeptides and use thereof” (ASTON UNIVERSITY, priority 2011, dated 2017):

Columns and labels:
[1] = tested on: human recombinant TG2 binding to FN and its 45 kDa and 70 kDa fragments; test: Inhibition of purified TG2 binding to FN by TG2-derived peptides (ELISA); details: peptide 10 μM-1 mM, effect at higher concentrations
Method: 96-well Microtitre 96-well plates were coated overnight with either full length FN (5 μg/ml), its 45 kDa (54 μg/ml) or 70 kDa (45 μg/ml) fragments, in 50 mM Tris-HCl, pH 7.4 as previously described (Verderio et al., 2003b). Wells were blocked with 3% BSA (w/v) in TBS pH 7.6. After three washes with PBS pH7.4, competitive peptides diluted in PBS, 2 mM EDTA, pH 7.4 were added to the wells at concentrations from 10 μM-1 mM and incubated for 1 h at room temperature. Wells were washed three times with PBS pH7.4 and purified human recombinant TG2 was added at a final concentration of 2 μg/ml in the presence of the different concentrations of P2 or P2s peptides and incubated for 1 h at room temperature. After three washes with PBS pH7.4 bound TG2 was measured via ELISA as introduced above. […] The treated TG2 was then detected by the ELISA assay as described above.

HOB cells = test: Cell adhesion assay (attachment and spreading) on FN or TG-FN matrix with RGD or RAD peptide; format: cell-based, human; details: for effect on attachment and spreading of HOB cells on TG-FN in the presence of the RGD peptide: TG-FN matrix, peptide 100-300 μg/ml
Method: The cell adhesion assay was carried out as previously described (Wang et al., 2010). Briefly, 96-well plastic tissue culture plates were coated with 5 μg/ml FN in 50 mM Tris-HCl, pH 7.4 at 4° C. overnight, after washing three times with 100 μl of 50 mM Tris-HCl, pH7.4, gplTG (20 μg/ml) in 2 mM EDTA in PBS, pH 7.4 was added to the wells for 1 h at 37° C. and the wells were washed three times with 50 mM Tris-HCl, pH7.4. Serum-starved (for 16 h) HOB cells with different treatments as introduced below in serum-free medium were detached by trypsinization and then treated with trypsin inhibitor. Cells were washed three times with serum free medium and seeded onto either FN or TG-FN matrix for 20-40 min. Peptides P1 or scrambled P1 (P1s), were added at concentrations between 100 μg/ml and 300 μg/ml. […] Attached cells were washed once with PBS, pH 7.4 and then fixed with 3.7% paraformaldehyde, further permeabilised with 0.1% (v/v) Triton® X-100 detergent in PBS, and co-stained with May-Grunwald and Giemsa stains as described previously (Jones et al., 1997). Images of stained cells from non-overlapping fields of view were photographed at 20× magnification and analyzed using the imaging analysis program Scion Image (National Institute of Health). Cell attachment and spreading were quantified, and the number of cells per image was assessed as described previously (Telci et al., 2008). Cell attachment on FN without peptide was considered as the control value for all the experiments unless stated otherwise. The mean number of attached cells form three wells was calculated and that of the control was considered as 100%. The mean number of attached cells (cell attachment) for each sample was then expressed as the percentage of cell attachment on FN. The mean percentage of attached cells that are spread (cell spreading) for each sample was determined separately, and the mean percentage of spread cells on FN control was expressed as 100%. The mean percentage of spread cells for each sample was then normalised against that of FN control Cell attachment on FN without the RGD peptide was considered as the control value for most of the experiments unless stated otherwise The mean number of attached cells from three wells was calculated and that of the control was considered as 100%. The mean number of attached cells (cell attachment) for each sample was then expressed as the percentage of cell attachment on FN. The mean percentage of attached cells that are spread (cell spreading) for each sample was determined separately, and the mean percentage of spread cells on the FN control was expressed as 100%. The mean percentage of spread cells for each sample was then normalised against that of FN control Cell pre-treatments included: PKCα inhibitor Go6976 (5 μM) or GK21 peptide (8 μM) for 1 h in serum-free medium prior to cell detachment; heparinase (15 mU/ml) or chondroitinase (15 mU/ml) to cells in suspension in serum free medium for 1 h. For the detection of the signalling molecules via Western blotting, the cell adhesion assay was performed in 60 mm Petri dishes and cells were collected into cell lysis buffer (Santa Cruz, UK) as described previously and pre-cleared by centrifugation at 300×g for 10 min. Western blotting was performed with specific anti-p-397 FAK or p-ERK1/2 antibodies. Membranes were stripped (Telci et al., 2008) and total FAK and ERK1/2 detected using anti-FAK and anti-ERK1/2 antibodies as listed in Table 2, while α-tubulin was used as an equal loading standard (Wang et al., 2011).
Cell adhesion and spreading assays were performed as described above in Example 1 method ‘Cell adhesion assay’

p-ERK1/2 = test: Western blotting of p-ERK1/2 after cell adhesion assay; format: cell-based, human; details: HOB on FN, RGD, peptide 100 μg/ml
Method: (§1) Cell lysates containing 50 μg of protein were dissolved in 2× Laemmli buffer (Sigma-Aldrich Ltd, Dorset, UK) and separated by SDS-PAGE. Western blotting was performed using specific primary antibodies as described above. Primary antibodies were detected using the appropriate secondary antibody conjugated to horse radish peroxidase. Detection was by chemiluminescence (Amersham ECL™ Western Blotting System, GE Healthcare, UK).
(§2) The cell adhesion assay was carried out as previously described (Wang et al., 2010). […] Images of stained cells from non-overlapping fields of view were photographed at 20× magnification and analyzed using the imaging analysis program Scion Image (National Institute of Health). Cell attachment and spreading were quantified, and the number of cells per image was assessed as described previously (Telci et al., 2008). […] The mean number of attached cells form three wells was calculated and that of the control was considered as 100%. The mean number of attached cells (cell attachment) for each sample was then expressed as the percentage of cell attachment on FN. The mean percentage of attached cells that are spread (cell spreading) for each sample was determined separately, and the mean percentage of spread cells on FN control was expressed as 100%. […]

p-397 FAK = test: Western blotting of p-397 FAK after cell adhesion assay; format: cell-based, human; details: HOB on FN, RGD, peptide 100 μg/ml
Method: as §1, §2

[2] = HOB cells on FN, RGD peptide, tested 0.01-200 μg/ml

human recombinant TG2 binding to FN and its 45 kDa and 70 kDa fragments, sequence (P02751 291-608 limits assumed): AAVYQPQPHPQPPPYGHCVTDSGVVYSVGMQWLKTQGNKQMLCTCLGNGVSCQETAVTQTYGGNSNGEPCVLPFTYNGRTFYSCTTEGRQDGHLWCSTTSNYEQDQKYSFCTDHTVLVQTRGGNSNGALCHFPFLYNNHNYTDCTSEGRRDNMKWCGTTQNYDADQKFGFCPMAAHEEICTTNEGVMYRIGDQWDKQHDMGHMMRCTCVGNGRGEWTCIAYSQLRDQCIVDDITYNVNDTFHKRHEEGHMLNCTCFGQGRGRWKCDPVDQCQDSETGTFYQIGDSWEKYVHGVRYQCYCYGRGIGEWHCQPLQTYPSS

| Sequence | inhibition of wild type TG2 binding to FN and its 45 and 70 kDa fragments [1] | effect on attachment and spreading of HOB cells on TG-FN in the presence of the RGD peptide (HOB cells) | phosphorylation of p-ERK1/2 (p-ERK1/2) | phosphorylation of p-FAK397 (p-397 FAK) | effect on binding of cells to FN alone (HOB cells; FN matrix, 100-300 μg/ml, compared to P1s) | concentration at which compensation of RGD-induced loss of cell adhesion started (HOB cells; [2]) [µg/mL] | concentration of maximum compensation of RGD-induced loss of cell adhesion (HOB cells; [2]) [µg/mL] | compensatory effect on RGD-induced loss of cell adhesion after heparinase pre-treatment (HOB cells; HOB cells treated with heparinase 15 mU/ml (not chondroitinase), FN) | compensatory effect on RGD-induced loss of cell adhesion after syndecan-4 siRNA (HOB cells; HOB cells, syndecan-4 siRNA (around 50% reduction in protein expression)) |
| --- | --- | --- | --- | --- | --- | --- | --- | --- | --- |
| AEELVLERCDLELE (listed as Homo sapiens) [P2, peptide corresponding to the N-terminal end of TG2] | moderate but significant inhibition | – | – | – | – | – | – | – | – |
| EECRLAEELLEDVL (Scrambed Control Peptide) [P2s, scrambled P2 peptide, reference compound] | No effect | – | – | – | – | – | – | – | – |
| FNRADLKPRCGSSNKSR (Scrambled Control Peptide) [P1s, scrambled control peptide for P1, reference compound] | – | almost no effect | not found | not found | – | – | – | – | – |
| NPKFLKNAGRDCSRRSS (listed as Homo sapiens) [P1] | – | small, but not significant dose-dependent negative effect | paralleled by the phosphorylation of p-FAK397 and p-ERK1/2 | paralleled by the phosphorylation of p-FAK397 | small but significant enhancement of adhesion | 5 to 10 | 50 to 100 | abolished | comparable reduction in the compensatory effect |
